# From US4157396A, “Hydroxamic acid derivatives and medicaments for treatment of urolithiasis and pyelonephrosis comprising such derivatives” (Eisai Co., Ltd., priority 1976, dated 1979)
# Like-named read-outs stand apart in the source and are kept apart here.
# Tests used:
# Proteus mirabilis OM-1 [1] = test: Arrestment action to alkalization of the urine; assay type: cell-based; settings: normal human urine inoculated with Proteus mirabilis OM-1, 37° C.
# Experimental: (§1) Solutions to be examined were prepared by collecting each 18 ml of fresh urine from a normal human, and adding the respective examination compounds to each of the urine to make their concentration of 10^-3 M in one group, and of 2×10^-4 in the other group. On the other hand, same solutions containing no examination compounds were prepared as blanks.
# Proteus mirabilis OM-1, a urease-producing bacterium, was inoculated in said solutions, so that the number of the bacteria may amount to 10^6 cell/ml, and cultured at 37° C. […] The arrestment ratio of calculus formation was calculated from said values.
# [2] = Acute toxicity: observation of the general conditions; assay type: in vivo
# Excerpt: (§2) Eight week-old rats of SD strain (body weight: about 230 g for male and about 160 g for female) were used as the subject animals. The examination compounds were forcedly and orally administered in the following dosages, wherein 14 rats (7 male rats and 7 female rats, respectively) were used.
# Proteus mirabilis OM-1 [3] = test: Arrestment action to the calculus formation in the urine; assay type: cell-based; settings: OM1, human urine with Proteus mirabilis OM-1, 8 hours, read-out: Arrest ratio to calculus formation (%), 8 hours
# [4] = target: T1, Urease collected and purified from sword beans (Canavalia gladiata) (Canavalia gladiata, UniProt A0AAN9R4W0); test: Determination of the urease inhibitory action; assay type: biochemical; settings: read-out: 50% inhibitory concentration (M) of urease <I50>
# T1 construct: single-chain plant urease, homohexamer by analogy with jack bean urease
# Experimental: (i) Determination of the urease inhibitory action
# Urease was collected and purified from sword beans (Canavalia gladiata) and mol concentrations of the examination compounds for inhibiting 50% of the activity of the urease were measured by the method of Kobashi et al [Refer to Biochim. Biophys. acta 227, 429-441 (1971)].
# [5] = Examination of urine (Labstix test paper, amount, pH); assay type: in vivo, male SD strain rats; set-up: key to Protein in urine, hours 0-6 / Protein in urine, hours 6-24 / Glucose in urine, hours 0-6 / Glucose in urine, hours 6-24 / Ketone substances in urine, hours 0-6 / Ketone substances in urine, hours 6-24 / Occult blood in urine, hours 0-6 / Occult blood in urine, hours 6-24: (-); (±); (+); (++); (+++); settings: 100 mg/Kg oral, male SD rats
# Experimental: To 5 male SD strain rats having the body weight of about 280 g in the respective groups, the examination compounds were forcedly and orally administered in a ratio of 100 mg/Kg in each time.
# Natural urinations were respectively recovered 6 hours and 6-24 hours from the administration. As for control group wherein no examination compound is administered, natural urination was similarly recovered. Amount and pH value of the recovered urine were measured. Further, qualitative reaction concerning the respective items of protein, glucose, ketone substances, and occult blood in the urine was carried out by using Labstix text paper (manufactured and sold by Ames Company). Judgement was ranked as five levels, that is, (-), (±), (+), (++) and (+++).
# Proteus mirabilis OM-1 [6] = test: Arrestment action to the calculus formation in the urine; assay type: cell-based; settings: OM1, human urine with Proteus mirabilis OM-1, 24 hours, read-out: Arrest ratio to calculus formation (%), 24 hours
# Experimental: as §1
# Proteus mirabilis OM-1, a urease-producing bacterium, was inoculated in said solutions, so that the number of the bacteria may amount to 10^6 cell/ml, and cultured at 37° C. After […] and 24 hours of the culture time, pH values of the solutions and amounts by weight of the formed and deposited calculus were measured. The arrestment ratio of calculus formation was calculated from said values.
# [7] = Determination of the transfer rate into the urine and calculation of the index; assay type: in vivo, male rats of SD strain; settings: rat, male SD rats, 100 mg/Kg oral, measured as urease inhibitory action in excreted urine
# Experimental: (ii) Determination of the transfer rate into the urine
# Transfer rates into the urine of the examination compounds were determined according to the method of Kobashi et al [Refer to Biochemistry (Japan) vol. 44, No. 5, pp. 187-204 (1972) and Yakugaku Zasshi vol. 12, pp. 1564-1572 (1973)] by using the male rats of SD strain having the body weight of about 280 g, administering orally each 100 mg/Kg of the compounds, and measuring the urease inhibitory action in the excreted urine within a specified period of time.
# (iii) Calculation of the index
# The index was calculated from the resulting values of the above examinations (i) and (ii) according to the following equation: [formula] wherein n is chosen appropriately depending on the value of I50.
# The value of the index is referred to as a standard of the urease inhibitory power of the administered examination compound in the urine.
# It is seen that the larger the value of the index is, the more effectively the examination compounds transfer into the urine with a form having the urease inhibitory action. Results of the determination
# [8] = Acute toxicity: remarks on the dissection; assay type: in vivo, rats of SD strain
# Experimental: as §2
# The dissection was performed, for the death examples, at the time of death and, for the survivor example, after killing by discharging the blood when the observation of the general conditions was finished. The organs in the thoracic cavity and the abdominal cavity were closely observed with a macroscopic manner.
# [9] = Acute toxicity (LD50), oral; settings: rat, in vivo, po
# Excerpt: The examination was achieved by orally administering the examination compounds into male rats of SD strain weighing about 230 g, respectively.
# [10] = single forced oral dose, SD rats, all administration groups
# T1 sequence (A0AAN9R4W0 entry or part of it): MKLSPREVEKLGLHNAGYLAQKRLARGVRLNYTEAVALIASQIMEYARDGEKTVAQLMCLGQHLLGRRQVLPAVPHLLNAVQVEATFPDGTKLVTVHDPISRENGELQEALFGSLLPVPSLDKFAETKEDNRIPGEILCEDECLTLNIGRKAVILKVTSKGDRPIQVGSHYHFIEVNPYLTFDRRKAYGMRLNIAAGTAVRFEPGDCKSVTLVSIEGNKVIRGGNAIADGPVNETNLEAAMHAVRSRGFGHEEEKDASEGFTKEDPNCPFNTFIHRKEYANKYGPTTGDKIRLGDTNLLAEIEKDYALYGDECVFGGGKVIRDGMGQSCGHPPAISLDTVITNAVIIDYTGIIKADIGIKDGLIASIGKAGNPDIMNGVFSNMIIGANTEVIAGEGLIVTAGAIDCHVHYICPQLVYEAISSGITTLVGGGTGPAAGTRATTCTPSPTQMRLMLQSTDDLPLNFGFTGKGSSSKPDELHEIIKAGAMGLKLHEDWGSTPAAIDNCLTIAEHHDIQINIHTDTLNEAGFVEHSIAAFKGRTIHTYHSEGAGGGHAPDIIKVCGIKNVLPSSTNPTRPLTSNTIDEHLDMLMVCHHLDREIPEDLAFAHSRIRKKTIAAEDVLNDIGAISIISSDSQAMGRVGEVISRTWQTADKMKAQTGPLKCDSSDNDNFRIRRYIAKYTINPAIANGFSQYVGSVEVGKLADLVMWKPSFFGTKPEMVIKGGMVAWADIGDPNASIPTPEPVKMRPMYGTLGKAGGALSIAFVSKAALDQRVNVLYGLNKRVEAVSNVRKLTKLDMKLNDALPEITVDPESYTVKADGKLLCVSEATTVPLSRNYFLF
smiles,measurement,setting,value
"O=C(CNC(=O)c1ccc(Cl)cc1)NO [Control compound I, 2-(para-chloro-benzamide)-acetohydroxamic acid, reference compound]","pH value, time 0 hour",Proteus mirabilis OM-1 [1]; 2×10^-4 M,6.79±0.01
same,"pH value, time 8 hours",Proteus mirabilis OM-1 [1]; 2×10^-4 M,7.30±0.00
same,"pH value, time 24 hours",Proteus mirabilis OM-1 [1]; 2×10^-4 M,8.51±0.01
same,"pH value, time 0 hour",Proteus mirabilis OM-1 [1]; 10^-3 M,6.75±0.003
same,"pH value, time 8 hours",Proteus mirabilis OM-1 [1]; 10^-3 M,6.64±0.02
same,"pH value, time 24 hours",Proteus mirabilis OM-1 [1]; 10^-3 M,7.03±0.01
same,"Number of death examples, Female","[2]; rat, in vivo",0/7
same,"Number of death examples, Male","[2]; rat, in vivo",3/7
same,Symptom,"[2]; single forced oral dose, SD rats, 7 male and 7 female per dose",arantic change
same,Baited amount,[2]; [10],Decrease
same,Body Weight decrease on average,[2]; [10],10%
same,inhibition at 200 µM,Proteus mirabilis OM-1 [3]; 2×10^-4 M,77.2 ± 9.1%
same,inhibition at 1000 µM,Proteus mirabilis OM-1 [3]; 10^-3 M,69.7 ± 9%
same,IC50,[4],1e-06 M
same,"Ketone substances in urine, hours 0-6","[5]; Labstix, 0-6 hours",++
same,"Occult blood in urine, hours 0-6","[5]; Labstix, 0-6 hours",-
same,"Protein in urine, hours 0-6","[5]; Labstix, 0-6 hours",++
same,"Glucose in urine, hours 6-24","[5]; Labstix, 6-24 hours",+++
same,"Ketone substances in urine, hours 6-24","[5]; Labstix, 6-24 hours",+++
same,"Occult blood in urine, hours 6-24","[5]; Labstix, 6-24 hours",-
same,"Protein in urine, hours 6-24","[5]; Labstix, 6-24 hours",+++
same,"Glucose in urine, hours 0-6","[5]; Labstix, first collection period",+++
same,Amount and pH value of the urine,[5]; compared with the group given no examination compound,there was not found the difference
same,inhibition at 200 µM,Proteus mirabilis OM-1 [6]; 2×10^-4 M,30.6 ± 13.9%
same,inhibition at 1000 µM,Proteus mirabilis OM-1 [6]; 10^-3 M,82.5 ± 8.5%
same,dose excreted at 6 h,[7]; 0-6 hours,1%
same,dose excreted at 24 h,[7]; 6-24 hours,0.5%
same,"Remarks on the dissection, death examples",[8]; macroscopic observation at the time of death,Petechiae and ulcer
same,"Remarks on the dissection, survivor example","[8]; rat, in vivo",Blacking change and hypertrophy of spleen
same,LD50,[9],> 5000 mg/kg
